# Source: ChEMBL document CHEMBL5500364, “Design, synthesis, and biological evaluation of some 2-(3-oxo-5,6-diphenyl-1,2,4-triazin-2(3H)-yl)-N-phenylacetamide hybrids as MTDLs for Alzheimer's disease therapy” (Eur J Med Chem, 2024)
# Activity calls are given as the source filed them. The calls are words filed in the database; no cut-off is given here.
# What was measured:
# Beta-secretase 1 = Beta-secretase 1 (Homo sapiens, UniProt P56817); assay: Inhibition of human BACE-1 using (7-Methoxycoumarin-4-acetyl-[Asn670, Leu671]-Amyloid beta/A4 precursor protein 770 fragments 667-676- (2, 4-dinitrophenyl) Lys-Arg-Arg amide trifluoroacetate salt as substrate incubated for 2 hrs by FRET-based analysis
# Cholinesterase = Cholinesterase (Homo sapiens, UniProt P06276); assay: Inhibition of human BChE using butyrylthiocholine iodide as substrate preincubated for 30 mins followed by substrate addition by DTNB based Ellman's colorimetric method
# [1] = molecular target: Dual specificity tyrosine-phosphorylation-regulated kinase 1A (Homo sapiens, UniProt Q13627); assay: Inhibition of Dyrk1A (unknown origin) incubated for 1 hrs in presence of [gamma-33P]-ATP by microplate scintillation counter based radiometric protein kinase assay
# Acetylcholinesterase = Acetylcholinesterase (Homo sapiens, UniProt P22303); assay: Inhibition of human erythrocyte AChE using acetylthiocholine iodide as substrate preincubated for 30 mins followed by substrate addition by DTNB based Ellman's colorimetric method
# [2] = Permeability of compound in PBS at pH 7.4 incubated for 18 hrs by PAMPA-BBB assay
# [3] = molecular target: Amyloid-beta precursor protein (Homo sapiens) (UniProt P05067); assay: Inhibition of human AchE-induced amyloid beta (1 to 42) (unknown origin) aggregation at 5 to 20 uM incubated for 48 hrs by Thioflavin T fluorescence assay relative to control; details: dose 5-20 µM
# SH-SY5Y [4] = assay: (§1) Neuroprotective activity against amyloid-beta(1 to 42) induced oxidative stress in differentiated human SH-SY5Y cells assessed as increase in cell viability at 40 uM preincubated with amyloid-beta (1 to 42 ) for 24 hrs followed by compound addition and measured after 48 hrs by MTT assay relative to control; format: functional
# [5] = molecular target: Amyloid-beta precursor protein (Homo sapiens) (UniProt P05067); assay: Inhibition of amyloid beta (1 to 42) (unknown origin) self aggregation ar 5 to 20 uM incubated for 48 hrs by Thioflavin T fluorescence assay relative to control; details: dose 5-20 µM
# [6] = Neurotoxicity in human SH-SY5Y cells assessed as reduction in cell population at 80 uM incubated for 24 hrs by MTT assay
# SH-SY5Y [7] = assay: as §1, with “72” for “48”; format: functional
# [8] = molecular target: Amyloid-beta precursor protein (Homo sapiens) (UniProt P05067); assay: Inhibition of amyloid beta (1 to 42) (unknown origin) aggregation assessed as reduction in amyloid-beta aggregates at 50 uM incubated for 48 hrs by TEM analysis
# [9] = molecular target: Amyloid-beta precursor protein (Homo sapiens) (UniProt P05067); assay: Inhibition of amyloid beta (1 to 42) (unknown origin) aggregation assessed as appearance of thinner aggregates at 50 uM incubated for 48 hrs by TEM imaging analysis
# [10] = molecular target: Amyloid-beta precursor protein (Homo sapiens) (UniProt P05067); assay: Inhibition of amyloid beta (1 to 42) (unknown origin) aggregation assessed as maximum peak height of aggregates incubated for 48 hrs by AFM analysis
# [11] = molecular target: Amyloid-beta precursor protein (Homo sapiens) (UniProt P05067); assay: Inhibition of amyloid beta (1 to 42) (unknown origin) aggregation assessed as reduction in size of amyloid-beta aggregates measured within 48 hrs by SEM imaging analysis
# Rattus norvegicus [12] = assay: Antialzheimer activity against scopolamine-induced amnesia in male Wistar rat model assessed as restoration of memory function by measuring percentage spontaneous alteration at 5 mg/kg, po preadministered with compound for 30 mins starting from 7 th day trail followed by scopolamine administration and measured after 5 mins by Y maze test; format: functional, organism-based; details: time 35.0 min
# Rattus norvegicus [13] = assay: (§2) Reversal of amyloid beta (1 to 42 residues) induced cognitive impairment in Wistar rat assessed as reduction in neural dispersion at DG region in hippocampus at 5 mg/kg, po pretreated with amyloid beta for 7 days followed by compound administration for 9 days and measured after 5 days by Nissl's staining based analysis; format: functional, organism-based; details: time 14.0 day
# Rattus norvegicus [14] = assay: (§3) Reversal of amyloid beta (1 to 42 residues) induced cognitive impairment in Wistar rat assessed as decrease in amyloid-beta level in CA3 region of hippocampus at 5 mg/kg, po pretreated with amyloid beta for 7 days followed by compound administration for 9 days and measured after 5 days by immuno histochemical analysis; format: functional, organism-based; details: time 14.0 day
# Rattus norvegicus [15] = assay: Reversal of amyloid beta (1 to 42 residues) induced cognitive impairment in Wistar rat assessed as reduction in escape latency time at 5 mg/kg, po pretreated with amyloid beta for 7 days followed by compound administration for 9 days and measured after 5 days by Morris water maze test; format: functional, organism-based; details: time 14.0 day
# Rattus norvegicus [16] = assay: Reversal of amyloid beta (1 to 42 residues) induced cognitive impairment in Wistar rat assessed as decrease in alpha-synuclein protein level at 5 mg/kg, po pretreated with amyloid beta for 7 days followed by compound administration for 9 days and measured after 5 days by Western blot analysis; format: functional, organism-based; details: time 14.0 day
# Rattus norvegicus [17] = assay: as §3, with “CA1” for “CA3”; format: functional, organism-based; details: time 14.0 day
# Rattus norvegicus [18] = assay: Reversal of amyloid beta (1 to 42 residues) induced cognitive impairment in Wistar rat assessed as reduction in escape latency time at 5 mg/kg, po pretreated with amyloid beta for 7 days followed by compound administration for 9 days and measured after 1 days by Morris water maze test; format: functional, organism-based; details: time 10.0 day
# Rattus norvegicus [19] = assay: Reversal of amyloid beta (1 to 42 residues) induced cognitive impairment in Wistar rat assessed as decrease in BACE-1 protein level at 5 mg/kg, po pretreated with amyloid beta for 7 days followed by compound administration for 9 days and measured after 5 days by Western blot analysis; format: functional, organism-based; details: time 14.0 day
# Rattus norvegicus [20] = assay: as §3, with “BACE-1” for “amyloid-beta”, “CA1” for “CA3”; format: functional, organism-based; details: time 14.0 day
# Rattus norvegicus [21] = assay: Reversal of amyloid beta (1 to 42 residues) induced cognitive impairment in Wistar rat assessed as decrease in APP protein level at 5 mg/kg, po pretreated with amyloid beta for 7 days followed by compound administration for 9 days and measured after 5 days by Western blot analysis; format: functional, organism-based; details: time 14.0 day
# Rattus norvegicus [22] = assay: Reversal of amyloid beta (1 to 42 residues) induced cognitive impairment in Wistar rat assessed as increase in platform crossings at 5 mg/kg, po pretreated with amyloid beta for 7 days followed by compound administration for 9 days and measured after 5 days by Morris water maze test; format: functional, organism-based; details: time 14.0 day
# Rattus norvegicus [23] = assay: Reversal of amyloid beta (1 to 42 residues) induced cognitive impairment in Wistar rat assessed as decrease in Tau protein level at 5 mg/kg, po pretreated with amyloid beta for 7 days followed by compound administration for 9 days and measured after 5 days by Western blot analysis; format: functional, organism-based; details: time 14.0 day
# Rattus norvegicus [24] = assay: as §3, with “BACE-1” for “amyloid-beta”; format: functional, organism-based; details: time 14.0 day
# Rattus norvegicus [25] = assay: as §3, with “BACE-1” for “amyloid-beta”, “DG” for “CA3”; format: functional, organism-based; details: time 14.0 day
# Rattus norvegicus [26] = assay: as §3, with “DG” for “CA3”; format: functional, organism-based; details: time 14.0 day
# Rattus norvegicus [27] = assay: Reversal of amyloid beta (1 to 42 residues) induced cognitive impairment in Wistar rat assessed as increase in platform crossings at 5 mg/kg, po pretreated with amyloid beta for 7 days followed by compound administration for 9 days and measured after 1 days by Morris water maze test; format: functional, organism-based; details: time 10.0 day
# Rattus norvegicus [28] = assay: Antialzheimer activity against scopolamine-induced amnesia in male Wistar rat model assessed as increase in total arm enteries at 5 mg/kg, po preadministered with compound for 30 mins starting from 7 th day trail followed by scopolamine administration and measured after 5 mins by Y maze test; format: functional, organism-based; details: time 35.0 min
# Rattus norvegicus [29] = assay: as §2, with “focal gliosis” for “neural dispersion at DG region”, “cerebral cortex” for “hippocampus”; format: functional, organism-based; details: time 14.0 day
# Rattus norvegicus [30] = assay: as §2, with “appearance of pyknotic neuron bodies” for “neural dispersion at DG region”; format: functional, organism-based; details: time 14.0 day
# Chain of Cholinesterase (P06276 whole entry): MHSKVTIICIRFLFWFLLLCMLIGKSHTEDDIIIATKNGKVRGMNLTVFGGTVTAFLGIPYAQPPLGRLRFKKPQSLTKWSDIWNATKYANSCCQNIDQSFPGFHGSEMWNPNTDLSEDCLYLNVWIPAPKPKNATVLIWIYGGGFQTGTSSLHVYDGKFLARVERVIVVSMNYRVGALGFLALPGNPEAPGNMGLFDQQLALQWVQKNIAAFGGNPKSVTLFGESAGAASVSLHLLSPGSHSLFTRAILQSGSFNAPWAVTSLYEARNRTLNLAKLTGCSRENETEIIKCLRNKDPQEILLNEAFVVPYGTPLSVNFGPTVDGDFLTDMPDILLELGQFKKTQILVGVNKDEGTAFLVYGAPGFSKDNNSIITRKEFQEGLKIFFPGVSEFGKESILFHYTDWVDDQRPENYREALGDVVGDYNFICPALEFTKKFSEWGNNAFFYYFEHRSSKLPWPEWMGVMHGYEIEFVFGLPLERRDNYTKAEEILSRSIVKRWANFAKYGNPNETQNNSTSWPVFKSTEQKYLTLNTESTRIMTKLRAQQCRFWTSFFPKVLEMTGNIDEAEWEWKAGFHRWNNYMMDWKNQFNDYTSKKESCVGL
# Chain of Amyloid-beta precursor protein (Homo sapiens) (P05067 whole entry): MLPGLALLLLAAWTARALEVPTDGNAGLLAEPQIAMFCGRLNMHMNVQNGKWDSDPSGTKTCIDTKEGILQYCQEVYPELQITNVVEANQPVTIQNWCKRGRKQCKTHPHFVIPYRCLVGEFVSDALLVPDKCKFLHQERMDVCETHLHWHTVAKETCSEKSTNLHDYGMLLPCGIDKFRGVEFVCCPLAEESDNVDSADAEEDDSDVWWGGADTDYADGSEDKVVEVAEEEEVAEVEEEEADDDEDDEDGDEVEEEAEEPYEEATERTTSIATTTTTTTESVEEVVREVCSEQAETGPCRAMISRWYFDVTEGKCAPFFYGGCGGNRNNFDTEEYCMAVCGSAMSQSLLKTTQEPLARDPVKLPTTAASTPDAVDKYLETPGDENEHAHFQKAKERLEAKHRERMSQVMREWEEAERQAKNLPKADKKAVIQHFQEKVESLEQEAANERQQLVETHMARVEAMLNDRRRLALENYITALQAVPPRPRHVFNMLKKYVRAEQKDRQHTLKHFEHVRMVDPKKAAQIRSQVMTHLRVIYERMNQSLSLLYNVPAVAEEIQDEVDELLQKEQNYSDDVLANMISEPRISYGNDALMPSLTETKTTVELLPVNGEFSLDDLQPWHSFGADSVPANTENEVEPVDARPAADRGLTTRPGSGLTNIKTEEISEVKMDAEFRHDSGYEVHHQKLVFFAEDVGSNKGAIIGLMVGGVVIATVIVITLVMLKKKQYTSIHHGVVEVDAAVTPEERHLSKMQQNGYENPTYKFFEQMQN
# Chain of Acetylcholinesterase (P22303 whole entry): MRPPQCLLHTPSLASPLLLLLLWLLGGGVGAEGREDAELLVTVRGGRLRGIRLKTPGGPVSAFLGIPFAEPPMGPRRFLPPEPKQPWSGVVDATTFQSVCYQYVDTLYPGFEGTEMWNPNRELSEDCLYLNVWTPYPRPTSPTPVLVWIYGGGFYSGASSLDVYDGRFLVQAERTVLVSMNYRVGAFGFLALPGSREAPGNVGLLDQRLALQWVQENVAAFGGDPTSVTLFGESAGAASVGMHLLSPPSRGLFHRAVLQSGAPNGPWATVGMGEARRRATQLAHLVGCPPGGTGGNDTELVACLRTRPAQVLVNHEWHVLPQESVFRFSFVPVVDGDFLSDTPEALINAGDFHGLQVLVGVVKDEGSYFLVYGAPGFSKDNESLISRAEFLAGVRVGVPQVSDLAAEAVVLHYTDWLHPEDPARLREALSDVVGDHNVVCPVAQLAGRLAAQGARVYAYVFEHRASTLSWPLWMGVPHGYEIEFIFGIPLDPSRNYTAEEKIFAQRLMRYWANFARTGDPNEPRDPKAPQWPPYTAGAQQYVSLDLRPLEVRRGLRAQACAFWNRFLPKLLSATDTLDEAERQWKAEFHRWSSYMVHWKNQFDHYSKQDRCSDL
# Chain of Beta-secretase 1 (P56817 whole entry, the tested form may be a part): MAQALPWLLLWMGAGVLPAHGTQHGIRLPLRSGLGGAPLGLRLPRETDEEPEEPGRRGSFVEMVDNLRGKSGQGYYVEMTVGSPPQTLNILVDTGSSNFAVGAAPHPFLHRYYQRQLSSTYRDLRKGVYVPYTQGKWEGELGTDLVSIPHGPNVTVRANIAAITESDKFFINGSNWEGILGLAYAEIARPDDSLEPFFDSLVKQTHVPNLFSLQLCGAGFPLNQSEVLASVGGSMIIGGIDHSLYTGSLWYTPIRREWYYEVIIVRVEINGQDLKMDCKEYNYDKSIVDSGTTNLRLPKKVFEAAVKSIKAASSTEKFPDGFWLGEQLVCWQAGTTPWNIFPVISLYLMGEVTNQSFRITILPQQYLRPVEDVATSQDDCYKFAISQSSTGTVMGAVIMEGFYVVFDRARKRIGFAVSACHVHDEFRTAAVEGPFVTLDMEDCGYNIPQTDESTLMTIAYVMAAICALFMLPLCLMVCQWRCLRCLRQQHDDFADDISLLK
Structure (SMILES),IC50 (Beta-secretase 1),IC50 (Cholinesterase),IC50 [1],IC50 (Acetylcholinesterase),also measured
O=C(Cn1nc(-c2ccccc2)c(-c2ccccc2)nc1=O)Nc1cc(Br)cc(Br)c1,1.25 µM,> 10 µM,> 10 µM,0.772 µM,–
O=C(Cn1nc(-c2ccccc2)c(-c2ccccc2)nc1=O)Nc1ccc(Cl)cc1,1.93 µM,> 10 µM,> 10 µM,1.41 µM,–
O=C(Cn1nc(-c2ccccc2)c(-c2ccccc2)nc1=O)Nc1ccc(F)cc1,0.694 µM,> 10 µM,> 10 µM,0.836 µM,–
COc1cc(NC(=O)Cn2nc(-c3ccccc3)c(-c3ccccc3)nc2=O)cc(OC)c1OC,0.648 µM,> 10 µM,> 10 µM,0.708 µM,Papp at 18 h [2]: 5.81 ×10⁻⁶ cm/s; inhibition [3]: 33.6%; Activity (SH-SY5Y [4]): 71%; inhibition [5]: 19.3%; Activity [6]: Non-Toxic; Activity (SH-SY5Y [7]): 78%
COc1cc(/C=C/C(=O)CC(=O)/C=C/c2ccc(O)c(OC)c2)ccc1O,–,–,–,–,inhibition [8]: Active; inhibition [9]: Active; Activity [10]: 206 nm; inhibition [11]: Active; inhibition [5]: 21.5%
O=C(Cn1nc(-c2ccccc2)c(-c2ccccc2)nc1=O)Nc1cccc(Cl)c1,1.44 µM,> 10 µM,> 10 µM,1.16 µM,–
O=C(Cn1nc(-c2ccccc2)c(-c2ccccc2)nc1=O)Nc1ccccc1O,0.953 µM,> 10 µM,> 10 µM,0.753 µM,–
O=C(Cn1nc(-c2ccccc2)c(-c2ccccc2)nc1=O)Nc1ccc(F)cc1F,1.44 µM,> 10 µM,> 10 µM,1.16 µM,–
COc1cc2c(cc1OC)C(=O)C(CC1CCN(Cc3ccccc3)CC1)C2 (stereo not drawn) [DONEPEZIL],–,–,–,–,Activity (Rattus norvegicus [12]): Active; Activity (Rattus norvegicus [13]): Active; Activity (Rattus norvegicus [14]): Active; Activity (Rattus norvegicus [15]): Active; Activity (Rattus norvegicus [16]): Active; Activity (Rattus norvegicus [17]): Active; Activity (Rattus norvegicus [18]): inactive; Activity (Rattus norvegicus [19]): Active; Activity (Rattus norvegicus [20]): Active; Activity (Rattus norvegicus [21]): Active; Activity (Rattus norvegicus [22]): Active; Activity (Rattus norvegicus [23]): Active; Activity [6]: Non-Toxic; Activity (Rattus norvegicus [24]): Active; Activity (Rattus norvegicus [25]): Active; Activity (Rattus norvegicus [26]): Active; Activity (Rattus norvegicus [27]): inactive; Activity (Rattus norvegicus [28]): Active; Activity (Rattus norvegicus [29]): Active; Activity (Rattus norvegicus [30]): Active
N#Cc1cccc(NC(=O)Cn2nc(-c3ccccc3)c(-c3ccccc3)nc2=O)c1,1.1 µM,> 10 µM,> 10 µM,1.25 µM,–
